Results as given in ChEMBL document CHEMBL1201862, “PubChem BioAssay data set” (2004).
Calls of active or inactive are those of the source.

What was measured:
[1] = tested on: Vero; test: viability loss in Vero cells – cell-based, plate reader, cherry-pick samples, cytotoxicity control, dose response (AID 687020); format: functional; conditions: Chlorocebus sabaeus
[2] = Late stage assay provider results from the probe development effort to identify selective inhibitors of heat shock protein 90 (HSP90): Absorbance-based cell proliferation assay in SKBR3 cells.; format: functional; conditions: SK-BR-3
[3] = Late stage assay provider results from the probe development effort to identify selective inhibitors of heat shock protein 90 (HSP90): Absorbance-based cell proliferation assay in MCF7 cells.; format: functional
[4] = T. cruzi growth inhibition in host cells, dose response, cell-based, plate reader, dry powder, set 2 (AID 652275); format: functional
[5] = viability of BHK-21 cells – cell-based, secondary screen, cytotoxicity control for flavivirus guanylyltransferase probe project (AID 624078); format: functional
[6] = molecular target: Mu-type opioid receptor (Homo sapiens, UniProt P35372); test: Late-stage results from the probe development effort to identify antagonists of OPRK1: luminescence-based cell-based dose response OPRM1 counterscreen, Set 2.; format: functional
[7] = molecular target: Kappa-type opioid receptor (Homo sapiens, UniProt P41145); test: Late-stage fluorescence-based cell-based dose response assay for antagonists of kappa opioid receptor 1 (OPRK1).; format: functional
[8] = molecular target: Sphingosine 1-phosphate receptor 1 (Homo sapiens, UniProt P21453); test: Late-stage counterscreen for antagonists of kappa opioid receptor 1 (OPRK1): fluorescence-based cell-based dose response assay to identify antagonists of Sphingosine 1-Phosphate Receptor 1 (S1P1).; format: functional
[9] = molecular target: Delta-type opioid receptor (Homo sapiens, UniProt P41143); test: Late-stage results from the probe development effort to identify antagonists of OPRK1: fluorescence-based cell-based dose response OPRD1 counterscreen, Set 2.; format: functional
[10] = tested on: HeLa; test: ATP-based viability loss in HeLa cells – cell-based, CellTiter-Glo luminescence, cherry-pick samples, cytotoxicity control for MITF activator project, dose response (AID 540259); format: functional; conditions: Homo sapiens
[11] = cells; conditions: HEK293
[12] = cells; conditions: A549
[13] = molecular target: Nonstructural protein 1 (Influenza A virus, UniProt Q194T2); format: functional, Influenza A virus (A/California/07/2009(H1N1))
[14] = molecular target: Albumin (Bos taurus, UniProt P02769); test: Counterscreen for inhibitors of T-cell receptor (TCR)-CD3 interaction: Fluorescence-based biochemical high throughput dose response assay to identify inhibitors of T-cell receptor (TCR)-CD3 interaction using a TAMRA-labeled BSA probe.; format: functional
[15] = molecular target: T1, Caspase-6 (Homo sapiens, UniProt P55212); test: inhibition of CASP6 peptide cleavage – biochemical, VEID-R110 fluorescence, cherry-pick, dose response (AID 720632)
T1 sequence (P55212 whole entry): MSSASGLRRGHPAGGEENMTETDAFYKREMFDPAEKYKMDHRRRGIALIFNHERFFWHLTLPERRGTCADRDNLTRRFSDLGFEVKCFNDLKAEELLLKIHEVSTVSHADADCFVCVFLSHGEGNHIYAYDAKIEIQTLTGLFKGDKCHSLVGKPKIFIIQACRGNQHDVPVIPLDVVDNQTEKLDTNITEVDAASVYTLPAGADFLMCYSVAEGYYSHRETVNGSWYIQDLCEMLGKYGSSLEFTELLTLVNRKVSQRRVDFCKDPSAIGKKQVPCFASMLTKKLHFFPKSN

[16] = molecular target: T2, Sentrin-specific protease 8 (Homo sapiens, UniProt Q96LD8); format: functional
T2 sequence (Q96LD8 whole entry): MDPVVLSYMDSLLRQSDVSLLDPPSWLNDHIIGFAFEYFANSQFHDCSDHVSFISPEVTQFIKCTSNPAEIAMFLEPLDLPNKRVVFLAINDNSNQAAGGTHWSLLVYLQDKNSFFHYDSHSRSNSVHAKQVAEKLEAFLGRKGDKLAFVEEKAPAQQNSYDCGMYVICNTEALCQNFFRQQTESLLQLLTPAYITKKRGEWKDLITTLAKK

[17] = molecular target: T3, Caspase-3 (Homo sapiens, UniProt P42574); test: Dose-response confirmation of uHTS inhibitor hits of Sentrin-Specific Protease 8 in a Caspase-3 Fluorescence assay.; format: functional
T3 sequence (P42574 whole entry): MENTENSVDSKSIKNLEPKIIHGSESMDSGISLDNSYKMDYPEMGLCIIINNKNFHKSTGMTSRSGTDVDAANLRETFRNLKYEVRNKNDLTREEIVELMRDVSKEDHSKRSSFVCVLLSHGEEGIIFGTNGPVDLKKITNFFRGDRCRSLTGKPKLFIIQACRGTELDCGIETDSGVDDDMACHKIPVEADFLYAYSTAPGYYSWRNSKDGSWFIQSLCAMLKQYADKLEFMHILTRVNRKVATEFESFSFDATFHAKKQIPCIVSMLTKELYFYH

[18] = molecular target: T4, Replicative DNA helicase DnaB (Mycobacterium tuberculosis, UniProt P9WMR3); test: DnaB intein splicing inhibitors, dose response, biochemical, cell-free fluorescence (AID 449749); format: functional
T4 sequence (P9WMR3 whole entry): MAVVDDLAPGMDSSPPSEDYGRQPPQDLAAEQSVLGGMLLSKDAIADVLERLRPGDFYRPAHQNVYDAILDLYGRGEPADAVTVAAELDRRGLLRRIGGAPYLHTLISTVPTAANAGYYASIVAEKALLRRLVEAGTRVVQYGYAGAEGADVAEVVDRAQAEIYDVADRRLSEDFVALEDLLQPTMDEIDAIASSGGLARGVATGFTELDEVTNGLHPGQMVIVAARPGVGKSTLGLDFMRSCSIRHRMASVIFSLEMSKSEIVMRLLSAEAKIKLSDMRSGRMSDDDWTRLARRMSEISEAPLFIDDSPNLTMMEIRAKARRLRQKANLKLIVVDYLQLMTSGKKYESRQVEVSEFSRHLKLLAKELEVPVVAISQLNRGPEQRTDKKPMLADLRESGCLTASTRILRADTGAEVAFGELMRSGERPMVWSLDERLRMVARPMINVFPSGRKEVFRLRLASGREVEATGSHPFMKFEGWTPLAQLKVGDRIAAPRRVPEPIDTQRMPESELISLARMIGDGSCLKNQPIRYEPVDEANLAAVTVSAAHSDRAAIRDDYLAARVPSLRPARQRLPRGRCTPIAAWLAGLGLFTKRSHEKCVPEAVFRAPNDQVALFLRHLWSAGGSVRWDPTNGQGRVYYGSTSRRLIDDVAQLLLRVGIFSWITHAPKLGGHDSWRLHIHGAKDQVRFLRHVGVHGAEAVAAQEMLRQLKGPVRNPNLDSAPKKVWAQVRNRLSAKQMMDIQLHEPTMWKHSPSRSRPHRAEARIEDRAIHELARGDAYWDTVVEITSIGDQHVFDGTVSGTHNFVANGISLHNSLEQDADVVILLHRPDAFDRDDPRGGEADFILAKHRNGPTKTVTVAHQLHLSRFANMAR

[19] = molecular target: T2, Sentrin-specific protease 8; format: functional; remark: listed apart in the source
[20] = molecular target: T5, Protein RecA (Mycobacterium tuberculosis, UniProt P9WHJ3); test: Fluorescence Cell-Free Homogeneous Dose Retest to Identify Inhibitors of RecA-Intein Splicing Activity. [Related pubchem assays (depositor defined):AID2097, AID2223, AID489010, AID492950]; format: functional
T5 sequence (P9WHJ3 whole entry): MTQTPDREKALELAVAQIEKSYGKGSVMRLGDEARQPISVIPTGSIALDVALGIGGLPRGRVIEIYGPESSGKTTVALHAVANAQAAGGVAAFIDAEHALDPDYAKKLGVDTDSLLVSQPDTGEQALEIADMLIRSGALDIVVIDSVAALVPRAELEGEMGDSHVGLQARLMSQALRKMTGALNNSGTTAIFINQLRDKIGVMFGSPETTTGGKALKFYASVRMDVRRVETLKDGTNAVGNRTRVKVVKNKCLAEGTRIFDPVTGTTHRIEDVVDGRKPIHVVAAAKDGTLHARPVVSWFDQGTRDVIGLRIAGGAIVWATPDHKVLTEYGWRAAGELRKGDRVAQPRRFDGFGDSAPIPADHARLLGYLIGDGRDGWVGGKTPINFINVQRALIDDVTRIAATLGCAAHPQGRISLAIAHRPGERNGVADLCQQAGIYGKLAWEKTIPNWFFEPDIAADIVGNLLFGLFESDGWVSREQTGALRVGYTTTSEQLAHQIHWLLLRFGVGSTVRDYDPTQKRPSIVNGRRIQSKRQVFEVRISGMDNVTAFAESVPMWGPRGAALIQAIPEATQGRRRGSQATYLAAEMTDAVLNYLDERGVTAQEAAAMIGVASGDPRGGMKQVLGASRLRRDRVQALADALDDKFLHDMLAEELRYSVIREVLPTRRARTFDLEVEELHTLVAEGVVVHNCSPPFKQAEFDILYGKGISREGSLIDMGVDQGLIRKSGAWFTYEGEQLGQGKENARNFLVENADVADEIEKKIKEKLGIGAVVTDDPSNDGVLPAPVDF

Albumin, sequence (P02769 whole entry): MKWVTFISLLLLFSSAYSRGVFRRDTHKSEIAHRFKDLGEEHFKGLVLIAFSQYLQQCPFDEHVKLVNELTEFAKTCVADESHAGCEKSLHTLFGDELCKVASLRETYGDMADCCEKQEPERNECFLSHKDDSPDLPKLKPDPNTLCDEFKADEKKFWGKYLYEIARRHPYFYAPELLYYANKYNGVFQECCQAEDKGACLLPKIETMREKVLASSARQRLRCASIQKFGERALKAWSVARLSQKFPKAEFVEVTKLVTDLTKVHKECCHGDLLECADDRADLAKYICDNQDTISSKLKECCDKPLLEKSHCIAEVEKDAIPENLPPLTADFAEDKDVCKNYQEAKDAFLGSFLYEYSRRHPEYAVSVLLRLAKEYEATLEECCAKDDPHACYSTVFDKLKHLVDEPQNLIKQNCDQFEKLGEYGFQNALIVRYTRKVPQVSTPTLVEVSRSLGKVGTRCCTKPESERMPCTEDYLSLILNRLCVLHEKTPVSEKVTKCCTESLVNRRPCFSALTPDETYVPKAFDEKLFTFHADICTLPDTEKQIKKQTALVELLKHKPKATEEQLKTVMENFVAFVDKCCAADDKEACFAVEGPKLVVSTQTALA
Delta-type opioid receptor, sequence (P41143 whole entry): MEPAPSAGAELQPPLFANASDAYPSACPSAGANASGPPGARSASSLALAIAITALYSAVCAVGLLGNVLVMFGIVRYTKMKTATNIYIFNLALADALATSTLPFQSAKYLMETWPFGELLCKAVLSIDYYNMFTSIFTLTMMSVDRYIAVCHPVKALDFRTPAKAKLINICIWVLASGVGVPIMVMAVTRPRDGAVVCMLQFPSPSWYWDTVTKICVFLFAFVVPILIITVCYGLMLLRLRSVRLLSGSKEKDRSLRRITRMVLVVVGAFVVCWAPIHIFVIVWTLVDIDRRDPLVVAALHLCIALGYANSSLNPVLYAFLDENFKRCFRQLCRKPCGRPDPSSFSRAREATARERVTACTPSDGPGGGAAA
Nonstructural protein 1, sequence (Q194T2 whole entry): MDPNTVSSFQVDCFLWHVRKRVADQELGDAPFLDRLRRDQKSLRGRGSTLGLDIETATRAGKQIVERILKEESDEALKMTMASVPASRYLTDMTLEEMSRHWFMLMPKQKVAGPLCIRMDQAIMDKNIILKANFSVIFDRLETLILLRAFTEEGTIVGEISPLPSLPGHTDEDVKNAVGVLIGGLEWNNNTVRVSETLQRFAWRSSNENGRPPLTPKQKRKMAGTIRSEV
Kappa-type opioid receptor, sequence (P41145 whole entry): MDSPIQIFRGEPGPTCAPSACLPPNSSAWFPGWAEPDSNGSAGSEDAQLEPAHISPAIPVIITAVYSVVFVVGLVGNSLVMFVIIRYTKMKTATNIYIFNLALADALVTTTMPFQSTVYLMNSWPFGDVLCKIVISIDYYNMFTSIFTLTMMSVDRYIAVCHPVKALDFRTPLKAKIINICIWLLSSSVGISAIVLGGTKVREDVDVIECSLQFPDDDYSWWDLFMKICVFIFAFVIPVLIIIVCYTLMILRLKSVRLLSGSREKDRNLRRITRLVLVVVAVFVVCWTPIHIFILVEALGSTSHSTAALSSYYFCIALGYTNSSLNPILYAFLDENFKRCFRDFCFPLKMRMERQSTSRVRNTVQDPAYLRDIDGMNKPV
Sphingosine 1-phosphate receptor 1, sequence (P21453 whole entry): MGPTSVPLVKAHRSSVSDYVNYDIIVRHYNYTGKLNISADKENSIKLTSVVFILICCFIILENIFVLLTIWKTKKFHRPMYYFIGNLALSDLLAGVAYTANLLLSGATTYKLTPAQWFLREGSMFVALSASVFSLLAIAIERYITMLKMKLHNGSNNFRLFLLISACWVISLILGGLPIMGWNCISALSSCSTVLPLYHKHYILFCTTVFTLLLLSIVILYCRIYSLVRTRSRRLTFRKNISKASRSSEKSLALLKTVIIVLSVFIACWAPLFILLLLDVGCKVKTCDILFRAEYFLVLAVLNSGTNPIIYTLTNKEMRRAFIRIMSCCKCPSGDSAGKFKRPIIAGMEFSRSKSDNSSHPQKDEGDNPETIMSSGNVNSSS
Mu-type opioid receptor, sequence (P35372 whole entry): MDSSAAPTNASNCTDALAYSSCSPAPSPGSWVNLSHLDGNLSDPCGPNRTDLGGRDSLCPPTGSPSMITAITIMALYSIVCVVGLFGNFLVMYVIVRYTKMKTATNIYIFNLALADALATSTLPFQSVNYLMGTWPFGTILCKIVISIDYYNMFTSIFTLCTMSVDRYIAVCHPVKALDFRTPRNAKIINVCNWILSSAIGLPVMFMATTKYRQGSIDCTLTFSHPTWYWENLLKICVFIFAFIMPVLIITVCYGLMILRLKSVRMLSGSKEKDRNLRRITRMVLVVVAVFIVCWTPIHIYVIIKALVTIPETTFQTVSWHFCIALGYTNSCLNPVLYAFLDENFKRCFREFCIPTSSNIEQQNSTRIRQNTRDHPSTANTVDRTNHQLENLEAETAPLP

## CC1CCC(CN2CCN=C2Nc2ccccc2)CC1 (stereo not given)
[1]
  AC50: 31.6 µM (active)

## CCOc1ccc(NC(=O)c2cc(=O)c(OC)c[nH]2)cc1
[2]
  IC50: > 100 µM (inactive)
[3]
  IC50: > 100 µM (inactive)

## CC(C)N1C[C@@H](CN(C)Cc2ccc(Cl)cc2)Oc2c(NC(=O)c3cn(C)cn3)cccc2C1=O
[4]
  AC50: 0.0198 µM (active)

## COc1ccc(OC)c(S(=O)(=O)Nc2cc(SCC(=O)O)c(O)c3ccccc23)c1
[5]
  CC50: 9.6 µM (active)

## COc1ccc(OS(=O)(=O)c2sc(Br)cc2Br)cc1
[6]
  IC50: > 50 µM (inactive)
[7]
  IC50: 16.9 µM (inactive)
[8]
  IC50: > 50 µM (inactive)
[9]
  IC50: 35.7 µM (inactive)

## CC(C)(C)c1csc(N/N=C/c2ccc(O)cc2)n1
[10]
  AC50: 69.4 µM (active)
[11]
  AC50: > 52 µM (inactive)
[12]
  AC50: > 52 µM (inactive)

## Nc1nnc(CC(=O)N/N=C\c2cc([N+](=O)[O-])ccc2O)s1
[13]
  IC50: 7.93 µM (active)
[14]
  IC50: > 94.1 µM (inactive)

## CCOC(=O)c1nn(-c2ccc(OC)cc2)c(=O)c2c(N)scc12
[15]
  AC50: 34.3 µM (active)
[16]
  IC50: 5.63 µM (active)
[17]
  IC50: 23 µM (active)
[18]
  AC50: 23.2 µM (active)
[19]
  IC50: 6.99 µM (active)
[20]
  EC50: 1.59 µM (active)
